Laboratory results: patent publication US11065214B1, “Combination therapies with disulfiram” (Spring Discovery, Inc., priority 2020, dated 2021)

Assays:
[1] = molecular target: transient receptor potential melastatin 8 (TRPM8) (Homo sapiens, UniProt Q7Z2W7); conditions: increase of [Ca2+]i; cited from earlier work
[2] = system: Spodoptera litum larvae; conditions: cited from earlier work
[3] = system: most gram-positive and some gram-negative bacteria; conditions: cited from earlier work
[4] = system: SAMP8 mice; conditions: intragastric, 4-month-old SAMP8 mice, 2 months; cited from earlier work
[5] = molecular target: CYP2C8 (Homo sapiens, UniProt P10632); conditions: cited from earlier work
Chain of CYP2C8 (P10632 whole entry): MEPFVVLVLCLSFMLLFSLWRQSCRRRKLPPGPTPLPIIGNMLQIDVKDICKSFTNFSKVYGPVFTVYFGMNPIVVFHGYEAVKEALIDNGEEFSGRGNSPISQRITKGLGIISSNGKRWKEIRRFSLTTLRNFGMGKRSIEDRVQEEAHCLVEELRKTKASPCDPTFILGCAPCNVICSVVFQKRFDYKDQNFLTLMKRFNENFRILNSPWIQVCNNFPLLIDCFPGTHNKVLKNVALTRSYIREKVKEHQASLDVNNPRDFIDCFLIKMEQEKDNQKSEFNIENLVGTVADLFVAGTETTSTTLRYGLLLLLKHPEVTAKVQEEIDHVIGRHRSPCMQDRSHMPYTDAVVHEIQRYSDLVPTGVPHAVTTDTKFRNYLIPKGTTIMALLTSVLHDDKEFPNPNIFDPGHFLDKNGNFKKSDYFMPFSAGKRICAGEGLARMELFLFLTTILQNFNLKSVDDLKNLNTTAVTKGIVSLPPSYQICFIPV

[6] = molecular target: CYP2C9 (Homo sapiens, UniProt P11712); conditions: cited from earlier work
Chain of CYP2C9 (P11712 whole entry, species assumed): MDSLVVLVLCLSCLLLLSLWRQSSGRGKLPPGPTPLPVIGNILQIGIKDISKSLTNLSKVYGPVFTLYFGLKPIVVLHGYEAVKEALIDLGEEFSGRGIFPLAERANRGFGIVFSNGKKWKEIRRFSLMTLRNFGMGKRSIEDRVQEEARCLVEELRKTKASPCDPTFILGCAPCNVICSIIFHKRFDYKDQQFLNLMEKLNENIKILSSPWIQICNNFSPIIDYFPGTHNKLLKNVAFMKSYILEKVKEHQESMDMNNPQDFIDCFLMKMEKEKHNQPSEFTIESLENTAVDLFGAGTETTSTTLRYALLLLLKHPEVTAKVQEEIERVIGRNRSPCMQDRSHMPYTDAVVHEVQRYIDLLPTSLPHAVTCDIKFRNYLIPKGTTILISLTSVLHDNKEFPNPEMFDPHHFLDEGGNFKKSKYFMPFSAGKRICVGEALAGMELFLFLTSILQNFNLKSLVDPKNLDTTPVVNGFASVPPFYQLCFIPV

[7] = molecular target: CYP2C19 (Homo sapiens, UniProt P33261); conditions: cited from earlier work
Chain of CYP2C19 (P33261 whole entry, species assumed): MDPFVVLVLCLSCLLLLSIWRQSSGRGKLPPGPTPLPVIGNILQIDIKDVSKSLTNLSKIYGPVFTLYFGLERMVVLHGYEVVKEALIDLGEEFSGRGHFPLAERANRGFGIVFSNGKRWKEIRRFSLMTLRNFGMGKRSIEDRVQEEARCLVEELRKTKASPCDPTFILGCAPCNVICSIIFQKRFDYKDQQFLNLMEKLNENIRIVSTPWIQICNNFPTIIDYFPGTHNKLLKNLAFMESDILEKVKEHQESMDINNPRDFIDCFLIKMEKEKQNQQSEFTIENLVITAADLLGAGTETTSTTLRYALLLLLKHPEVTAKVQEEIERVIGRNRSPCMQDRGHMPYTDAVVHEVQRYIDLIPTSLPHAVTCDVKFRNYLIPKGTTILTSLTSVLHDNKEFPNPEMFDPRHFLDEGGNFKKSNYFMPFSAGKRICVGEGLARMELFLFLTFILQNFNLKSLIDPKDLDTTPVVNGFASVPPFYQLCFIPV

[8] = system: brain blood flow; conditions: 450 mg/kg during a 15-minute period, after simvastatin 2 mg/kg subcutaneously daily for 14 days, SV-129 mice; cited from earlier work
[9] = system: severe sepsis; conditions: patients with severe sepsis, placebo cohort 24%; cited from earlier work
[10] = 510 mg/day, patients, cited from earlier work
[11] = molecular target: N-methyl-D-aspartate receptors (NMDARs); conditions: glycine-binding site; read-out: KB, competitive antagonist of NMDARs; cited from earlier work
[12] = molecular target: SIRT1 (Homo sapiens, UniProt Q96EB6); conditions: cited from earlier work
Chain of SIRT1 (Q96EB6 whole entry, species assumed): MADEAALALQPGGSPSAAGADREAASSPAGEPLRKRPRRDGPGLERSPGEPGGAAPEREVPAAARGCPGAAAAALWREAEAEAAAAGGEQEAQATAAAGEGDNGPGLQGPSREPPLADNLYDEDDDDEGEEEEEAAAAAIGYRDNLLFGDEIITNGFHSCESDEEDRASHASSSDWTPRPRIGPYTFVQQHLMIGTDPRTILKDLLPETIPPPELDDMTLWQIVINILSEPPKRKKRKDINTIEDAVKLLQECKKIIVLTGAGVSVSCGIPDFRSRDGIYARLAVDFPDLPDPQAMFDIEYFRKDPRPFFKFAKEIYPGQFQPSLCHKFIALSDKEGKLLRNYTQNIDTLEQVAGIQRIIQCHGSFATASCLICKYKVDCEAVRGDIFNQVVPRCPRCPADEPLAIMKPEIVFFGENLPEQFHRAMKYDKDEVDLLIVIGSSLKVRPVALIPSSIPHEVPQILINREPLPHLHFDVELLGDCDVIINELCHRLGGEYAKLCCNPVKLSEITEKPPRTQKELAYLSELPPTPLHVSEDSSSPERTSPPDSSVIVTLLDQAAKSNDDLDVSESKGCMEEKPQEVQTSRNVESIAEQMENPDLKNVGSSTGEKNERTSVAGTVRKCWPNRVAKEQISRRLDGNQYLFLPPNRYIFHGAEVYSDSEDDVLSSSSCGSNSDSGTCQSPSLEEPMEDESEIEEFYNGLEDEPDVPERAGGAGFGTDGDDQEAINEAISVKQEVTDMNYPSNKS

[13] = static toxicity tests; cited from earlier work
[14] = system: mouse skin carcinogenesis; conditions: cited from earlier work
[15] = system: carrageenan; conditions: 25, 50 or 100 mg/kg, i.p., immediately and 2 h after carrageenan; cited from earlier work
[16] = system: fever induced by lipopolysaccharide (LPS); conditions: 50 or 100 mg/kg, i.p., 0 and 2 h; rats; cited from earlier work
[17] = molecular target: cyclo-oxygenase-2 (COX-2) (Homo sapiens, UniProt P35354); conditions: independently of NF-κB activation; cited from earlier work
Chain of cyclo-oxygenase-2 (COX-2) (P35354 18-604, species assumed): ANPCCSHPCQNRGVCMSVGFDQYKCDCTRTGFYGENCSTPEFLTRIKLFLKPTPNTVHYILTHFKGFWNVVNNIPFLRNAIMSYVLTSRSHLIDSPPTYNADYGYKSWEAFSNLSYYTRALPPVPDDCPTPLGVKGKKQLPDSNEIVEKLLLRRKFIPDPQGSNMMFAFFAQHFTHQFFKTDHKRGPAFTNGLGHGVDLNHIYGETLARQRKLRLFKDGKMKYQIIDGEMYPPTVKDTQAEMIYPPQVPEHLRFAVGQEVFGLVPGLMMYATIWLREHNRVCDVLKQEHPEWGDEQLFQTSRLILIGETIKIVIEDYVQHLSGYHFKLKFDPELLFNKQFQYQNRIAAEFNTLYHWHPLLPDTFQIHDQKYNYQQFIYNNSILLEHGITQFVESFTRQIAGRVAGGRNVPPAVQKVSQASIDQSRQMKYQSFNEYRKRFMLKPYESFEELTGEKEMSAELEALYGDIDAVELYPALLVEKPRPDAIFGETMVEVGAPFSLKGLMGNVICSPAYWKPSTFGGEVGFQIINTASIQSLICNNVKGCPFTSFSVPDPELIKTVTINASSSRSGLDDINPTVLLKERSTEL

[18] = system: THP1 HMGB1 Lucia cells; assay: Pyroptosis inhibition luciferase assay, LPS + nigericin, HMGB1 reporter (QUANTI-Luc); assay type: cell-based; conditions: compound alone; 1 μg/ml LPS 3 h, then 10 μM nigericin 3 h
[19] = system: fibroblasts, peripheral blood mononuclear cells (PBMCs), myoblasts; assay: Reversal of aging (predicted age) in cultured young/old cells contacted with disulfiram plus potentiating ingredients; assay type: cell-based; conditions: concentrations 0.000005 to 80 μM; potentiating ingredient as high as 25 μM
[20] = system: neuroblastoma cells; conditions: cited from earlier work
[21] = system: influenza virus H1N1; conditions: cited from earlier work
[22] = system: ProDH (proline dehydrogenase); conditions: competitive; plants; cited from earlier work
[23] = doses up to 750 mg/kg bw; cited from earlier work
[24] = rats, doses up to 2000 mg/kg bw; cited from earlier work

Chain of transient receptor potential melastatin 8 (TRPM8) (Q7Z2W7 whole entry, species assumed): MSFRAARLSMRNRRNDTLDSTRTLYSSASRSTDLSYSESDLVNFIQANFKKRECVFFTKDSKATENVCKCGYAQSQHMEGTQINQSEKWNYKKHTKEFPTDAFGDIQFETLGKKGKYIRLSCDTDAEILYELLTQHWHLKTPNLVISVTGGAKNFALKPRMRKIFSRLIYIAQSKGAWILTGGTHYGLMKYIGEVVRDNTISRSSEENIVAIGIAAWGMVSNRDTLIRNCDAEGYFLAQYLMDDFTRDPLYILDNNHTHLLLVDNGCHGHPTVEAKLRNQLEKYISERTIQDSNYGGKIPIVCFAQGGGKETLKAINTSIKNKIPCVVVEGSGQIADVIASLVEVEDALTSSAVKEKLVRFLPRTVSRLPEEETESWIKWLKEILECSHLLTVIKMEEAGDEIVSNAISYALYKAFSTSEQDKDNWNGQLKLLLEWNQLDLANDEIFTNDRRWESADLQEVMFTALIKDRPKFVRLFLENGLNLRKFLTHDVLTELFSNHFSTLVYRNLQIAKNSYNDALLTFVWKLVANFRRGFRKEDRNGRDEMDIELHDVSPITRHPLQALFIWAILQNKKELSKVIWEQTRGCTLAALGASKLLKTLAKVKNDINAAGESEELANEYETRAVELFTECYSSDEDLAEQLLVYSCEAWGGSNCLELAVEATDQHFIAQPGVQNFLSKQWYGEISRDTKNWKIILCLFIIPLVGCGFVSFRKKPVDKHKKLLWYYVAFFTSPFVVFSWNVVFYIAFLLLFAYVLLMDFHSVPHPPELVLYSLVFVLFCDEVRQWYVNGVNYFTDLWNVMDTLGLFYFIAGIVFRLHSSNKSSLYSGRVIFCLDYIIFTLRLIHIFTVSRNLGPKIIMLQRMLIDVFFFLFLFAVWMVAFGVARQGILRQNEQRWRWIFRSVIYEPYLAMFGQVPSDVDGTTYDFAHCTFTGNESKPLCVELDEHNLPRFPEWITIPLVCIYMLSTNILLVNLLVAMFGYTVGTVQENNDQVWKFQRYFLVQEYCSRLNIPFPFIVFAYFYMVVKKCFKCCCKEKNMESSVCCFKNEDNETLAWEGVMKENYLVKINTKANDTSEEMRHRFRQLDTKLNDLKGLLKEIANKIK

For `CC1CCC(C(C)C)C(O)C1` (single isomer, unassigned; (-)) [(−)-Menthol], the “binding and activation of TRPM8” value [1] is given as “(−)-Menthol is a key component of peppermint oil that binds and activates”.

For `CCCC=C1OC(=O)c2ccccc21` [3-Butylidenephthalide], the “LC50, larvicidal activity” value [2] is given as “activity (LC50 of 1.56 mg/g for Spodoptera litum larvae)”.

In the case of `O=C(O)c1ccc(O)cc1` [4-Hydroxybenzoic acid], the “IC50, inhibition of most gram-positive and some gram-negative bacteria” value [3] is given as “IC50 of 160 μg/mL”.

For `CCCCC1OC(=O)c2ccccc21` (centres unmarked) [Butylphthalide], the “spatial learning and memory ability” value [4] is listed as 2 months significantly improved spatial learning and memory ability.

For `C[C@@H]1CC[C@H]2C(C)(C)[C@H]3C[C@@]12CC[C@@]3(C)O` [Cedrol], the “inhibitory effect on CYP2C8” value [5] is listed as “weak”, the “inhibitory effect on CYP2C9” value [6] is listed as “weak” and the “inhibitory effect on CYP2C19” value [7] is listed as “weak”.

In the case of `N=C(N)NCCC[C@H](N)C(=O)O` [L-Arginine], the hyperemia [8] is listed as “minute period) amplifies and sustains the hyperemia (38%) and increases” and the “Resolution of shock at 72 hours, share of patients” value [9] is listed as 72 hours is achieved by 40% and 24% of the patients in the L-Arginine.

In the case of `C[N+](C)(C)C[C@H](O)CC(=O)[O-]` [L-Carnitine], the “total time for dozing off during the daytime” value ([10]; versus placebo-treated periods) is listed as “L-carnitine (Levocarnitine) treatment significantly improved the total”, the serum acylcarnitine levels [10] is listed as “L-carnitine (Levocarnitine) efficiently increased serum acylcarnitine” and the serum triglycerides concentration [10] is listed as “levels, and reduced serum triglycerides concentration”.

For `N[C@@H](Cc1ccccc1)C(=O)O` [L-Phenylalanine], the Kb [11] is listed as 573 µM.

In the case of `NC(=O)c1cccnc1` [Nicotinamide], the “inhibition of SIRT1” value [12] is listed as “reactions. Nicotinamide is an inhibitor of SIRT1”.

In the case of `CCCCCCCCC(=O)NCc1ccc(O)c(OC)c1` [Nonivamide], the 4d-EC50 [13] is given as 5.1 mg/L in static toxicity tests.

For `CCCCCCCC(=O)CCc1ccc(O)c(OC)c1` [Paradol], the “inhibition of tumor promotion” value [14] is given as “Zingiberaceae plants. Paradol is an effective inhibitor of tumor promotion”.

For `Cc1cc2nc3c(=O)[nH]c(=O)nc-3n(C[C@H](O)[C@H](O)[C@H](O)CO)c2cc1C` [Riboflavin], the “antiedema and antinociceptive effects” value [15] is given as “induced antiedema and antinociceptive effects. The antinociceptive effect” and the “effect on LPS-induced fever” value [16] is given as “inhibited the fever induced by lipopolysaccharide (LPS) in rats”.

In the case of `O=C(O)c1ccccc1O` [Salicylic acid], the “inhibition of COX-2 activity” value [17] is listed as “Salicylic acid (2-Hydroxybenzoic acid) inhibits cyclo-oxygenase-2”.

In the case of `CC(C)(C)c1cc(O)ccc1O` [TBHQ, tert-Butylhydroquinone], the “pyroptosis inhibition (HMGB1 luciferase reporter in supernatant)” value [18] is reported as “no effect on pyroptosis inhibition or a clear IC50” and the “ability in combination with disulfiram to reverse aging in the cells” value [19] is reported as “identified as a potentiating ingredient”.

In the case of `COc1cc(CCC(C)=O)ccc1O` [Zingerone], the “growth of neuroblastoma cells” value [20] is given as “agent, and inhibits the growth of neuroblastoma cells”.

In the case of `OC[C@H]1O[C@@H]2O[C@H]3[C@H](O)[C@@H](O)[C@@H](O[C@H]4[C@H](O)[C@@H](O)[C@@H](O[C@H]5[C@H](O)[C@@H](O)[C@@H](O[C@H]6[C@H](O)[C@@H](O)[C@@H](O[C@H]7[C@H](O)[C@@H](O)[C@@H](O[C@H]8[C@H](O)[C@@H](O)[C@@H](O[C@H]1[C@H](O)[C@H]2O)O[C@@H]8CO)O[C@@H]7CO)O[C@@H]6CO)O[C@@H]5CO)O[C@@H]4CO)O[C@@H]3CO` [β-Cyclodextrin], the anti-influenza virus activity [21] is given as “Cyclodextrin has anti-influenza virus H1N1 activities”.

In the case of D-(-)-Lactic acid, the “inhibition of ProDH” value [22] is given as “inhibitor of ProDH (proline dehydrogenase) in plants”.

In the case of Rebaudioside A, the “genotoxic effects, mouse micronucleus test” value [23] is listed as “rebaudioside A do not cause any genotoxic effects at any of the doses” and the “genotoxic effects, unscheduled DNA synthesis test” value [24] is listed as “rebaudioside A do not cause any genotoxic effects at any of the doses”.
